Results taken from paper PMC12860872, “Preclinical evaluation of DOTAGA.Glu.(FAPI)2 and DO3A.Glu.(FAPI)2 as theranostics with human dosimetry extrapolation to lutetium-177 and terbium-161 analogs” (European Journal of Nuclear Medicine and Molecular Imaging, 2025).
“And” between values parts separate entries of the source, which are not always exact repeats. Equal entries are not always repeated.

Target: T1, FAP (Homo sapiens, UniProt Q12884)
T1 construct: the CAF cells overexpressing FAP were seeded at a density of 0.8-1 million cells per well; host or cells: hTERT PF179T prostate cancer-associated fibroblasts
T1 sequence (Q12884 1-760): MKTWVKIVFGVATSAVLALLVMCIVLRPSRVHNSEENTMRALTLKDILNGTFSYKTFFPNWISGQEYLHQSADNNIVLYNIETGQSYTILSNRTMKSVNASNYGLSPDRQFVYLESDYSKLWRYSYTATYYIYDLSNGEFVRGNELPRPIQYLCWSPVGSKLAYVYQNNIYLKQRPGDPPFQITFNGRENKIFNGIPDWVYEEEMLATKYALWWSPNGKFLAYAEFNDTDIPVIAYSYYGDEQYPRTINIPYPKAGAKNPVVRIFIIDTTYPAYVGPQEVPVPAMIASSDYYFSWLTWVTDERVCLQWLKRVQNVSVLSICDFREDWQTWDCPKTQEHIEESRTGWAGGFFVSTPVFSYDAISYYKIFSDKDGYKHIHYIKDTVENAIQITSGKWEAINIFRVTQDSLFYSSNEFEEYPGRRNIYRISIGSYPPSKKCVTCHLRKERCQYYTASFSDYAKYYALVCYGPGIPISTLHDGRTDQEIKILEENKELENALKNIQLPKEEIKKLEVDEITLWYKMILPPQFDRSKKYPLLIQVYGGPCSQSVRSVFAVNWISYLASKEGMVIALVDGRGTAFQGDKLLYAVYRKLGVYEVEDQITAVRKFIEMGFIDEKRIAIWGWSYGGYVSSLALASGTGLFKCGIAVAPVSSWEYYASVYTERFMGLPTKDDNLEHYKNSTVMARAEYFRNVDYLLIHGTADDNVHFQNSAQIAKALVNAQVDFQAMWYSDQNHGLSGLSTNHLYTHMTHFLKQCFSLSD
Assay: Saturation binding on FAP+ CAFs
Details: for Kd: 0.1 to 10 nM radioligand
Procedure: For receptor saturation studies, FAP^+ CAFs were incubated with 0.1 to 10 nM of the radioligands. For internalization studies, approximately 2.5 pmol of the radioligands were added to CAFs followed by incubation for 15, 30, 60, 90, 120, 180 and 240 min for the ^68Ga-labeled or 30, 60, 120, 240 and 360 min for the ^177Lu-labeled radioligands at 37 °C, 5% CO2. For the externalization studies, approximately 2.5 pmol of the ^177Lu-labeled radioligands were added to CAFs followed by incubation for 2 h at 37 °C, 5% CO2. The amount of externalized activity was measured at 0, 10, 20, 30, 60, 120, 240, and 1440 min (Supplemental Data).
For receptor saturation analysis, the CAF cells overexpressing FAP were seeded at a density of 0.8-1 million cells per well in 6-well plates, pre-coated with BME (Cultrex Reduced Growth Factor Basement Membrane Extract, RGF BME, R&D System, Minneapolis, USA) to enhance cell attachment. The cells were incubated overnight with medium (EMEM supplemented and containing 10% FBS, 100 U/mL penicillin and 100 μg/mL streptomycin). The next day, the medium was removed and the cells were incubated for 30 minutes at 37 °C, with 0.8 mL of fresh medium. Afterwards, the plates were placed on ice for 30 minutes followed by incubation with increasing concentrations of ^68/natGa- and ^177/natLu-labelled DOTAGA.Glu.(FAPI)2 and DO3A.Glu.( FAPI)2 (0.1-10 nM final concentration in the wells). After the addition of the radioligands, the cells were incubated for 120 minutes at 4 °C. Non-specific binding was determined in the presence of UAMC1110 at a final concentration of 1 μM. After the completion of the incubation, the cells were washed twice with ice-cold PBS, followed by solubilization with 1 M NaOH. The cell-associated radioactivity was measured using a gamma-counter. Specific binding was plotted against the total molar concentration of the added radiotracer. The Kd values and the concentration of the radioligand required to saturate the receptors (Bmax) were determined by nonlinear regression using GraphPad (Prism 8 Graph Pad Software, San Diego, CA). For all the cell studies the values are normalized for 1x10^6 cells per well and all data are from two independent experiments with triplicates in each experiment.

[1] = listed as 177/natLu-DOTAGA.Glu.(FAPI)2
[2] = listed as 177/natLu-DO3A.Glu.(FAPI)2

Kd [1] | Bmax [1] | Kd [2] | Bmax [2] | SMILES
0.7 nM and 0.68 nM | 0.4 ± 0.02 nM and 0.36 ± 0.02 nM |  |  | N#C[C@@H]1CC(F)(F)CN1C(=O)CNC(=O)c1ccnc2ccc(OCCCCNC(=O)CC[C@H](NC(=O)CCC(C(=O)O)N3CCN(CC(=O)[O-])CCN(CC(=O)[O-])CCN(CC(=O)[O-])CC3)C(=O)NCCCCOc3ccc4nccc(C(=O)NCC(=O)N5CC(F)(F)C[C@H]5C#N)c4c3)cc12.[177Lu+3] (stereo partly shown) [[^177Lu]Lu-DOTAGA.Glu.(FAPI)2]
 |  | 0.7 nM and 0.72 nM | 0.4 ± 0.02 nM and 0.37 ± 0.02 nM | N#C[C@@H]1CC(F)(F)CN1C(=O)CNC(=O)c1ccnc2ccc(OCCCCNC(=O)CC[C@H](NC(=O)CN3CCN(CC(=O)[O-])CCN(CC(=O)[O-])CCN(CC(=O)[O-])CC3)C(=O)NCCCCOc3ccc4nccc(C(=O)NCC(=O)N5CC(F)(F)C[C@H]5C#N)c4c3)cc12.[177Lu+3] [[^177Lu]Lu-DO3A.Glu.(FAPI)2]
